Publication PMC8185074, “Anchor extension: a structure-guided approach to design cyclic peptides targeting enzyme active sites” (Nature Communications, 2021)
Peptide text beside a SMILES is read from it.

Tests used:
HDAC6 = biological target: T1, HDAC6 (Homo sapiens, UniProt Q9UBN7); test: HDAC6 inhibition, full IC50 measurement (Reaction Biology; fluorogenic p53 peptide RHKK(Ac)AMC); assay type: biochemical
T1 construct: purchased Reaction Biology Corporation (assay run by the CRO)
T1 sequence (Q9UBN7 1-1215): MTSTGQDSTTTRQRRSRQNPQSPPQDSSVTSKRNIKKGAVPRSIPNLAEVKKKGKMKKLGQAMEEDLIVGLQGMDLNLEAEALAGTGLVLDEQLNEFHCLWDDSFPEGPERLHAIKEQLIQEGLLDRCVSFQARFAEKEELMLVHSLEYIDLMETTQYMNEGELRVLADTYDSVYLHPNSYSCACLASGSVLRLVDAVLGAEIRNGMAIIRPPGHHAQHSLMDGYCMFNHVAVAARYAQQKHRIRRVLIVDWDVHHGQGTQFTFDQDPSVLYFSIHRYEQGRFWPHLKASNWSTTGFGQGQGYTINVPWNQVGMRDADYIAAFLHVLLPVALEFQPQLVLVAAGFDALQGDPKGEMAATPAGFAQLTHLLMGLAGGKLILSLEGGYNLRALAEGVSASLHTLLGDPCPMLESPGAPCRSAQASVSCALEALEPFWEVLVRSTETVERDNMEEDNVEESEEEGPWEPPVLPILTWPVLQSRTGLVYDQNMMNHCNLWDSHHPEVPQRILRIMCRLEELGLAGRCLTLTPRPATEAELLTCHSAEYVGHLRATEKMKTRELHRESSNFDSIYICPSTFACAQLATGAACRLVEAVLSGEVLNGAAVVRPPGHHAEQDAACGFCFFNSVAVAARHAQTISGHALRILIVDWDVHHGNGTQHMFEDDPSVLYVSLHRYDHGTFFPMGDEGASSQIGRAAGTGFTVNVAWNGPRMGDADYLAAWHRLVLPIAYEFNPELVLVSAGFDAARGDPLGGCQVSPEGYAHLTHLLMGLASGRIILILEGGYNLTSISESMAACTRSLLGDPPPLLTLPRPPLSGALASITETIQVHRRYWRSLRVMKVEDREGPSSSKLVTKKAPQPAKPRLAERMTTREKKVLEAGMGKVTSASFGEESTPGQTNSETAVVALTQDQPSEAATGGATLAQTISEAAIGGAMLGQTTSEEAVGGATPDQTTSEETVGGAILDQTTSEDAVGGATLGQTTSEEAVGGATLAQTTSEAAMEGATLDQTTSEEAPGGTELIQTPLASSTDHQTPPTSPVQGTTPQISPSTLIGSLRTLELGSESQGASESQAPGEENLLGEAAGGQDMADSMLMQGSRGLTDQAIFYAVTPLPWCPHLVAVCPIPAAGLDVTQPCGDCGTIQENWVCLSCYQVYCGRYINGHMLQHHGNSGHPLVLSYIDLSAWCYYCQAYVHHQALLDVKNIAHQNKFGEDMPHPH
Protocol: (§1) The assay was performed using 50 μM fluorogenic peptide from p53 residues 379-382 [RHKK(Ac)AMC] in a base reaction buffer of 50 mM Tris-HCl at pH 8.0, 137 mM NaCl, 2.7 mM KCl, 1 mM MgCl2, and freshly added 1 mg/ml BSA and 1% DMSO. Peptides were first dissolved in DMSO and then added to the reaction mixture with the enzyme using acoustic technique, enough to reach the desired concentration for that assay point. Peptide concentrations were calculated based on mass of lyophilized peptide and its molecular weight. The substrate was then added and incubated for 1 hour at 30 °C in a sealed container. After the incubation, developer was added to stop the reaction and develop color. Kinetic measurements were then performed for 20 min with Envision with 5 min intervals (Ex/Em = 360/460 nm). The endpoint after plateau was taken for IC50 measurement.
(§2) In cases where duplicate measures are used, average data is reported in the main text or Supplementary Tables.

HDAC2 = biological target: T2, HDAC2 (Homo sapiens, UniProt Q92769); test: HDAC2 inhibition, full IC50 measurement (Reaction Biology; fluorogenic p53 peptide RHKK(Ac)AMC); assay type: biochemical
T2 construct: purchased Reaction Biology Corporation (assay run by the CRO)
T2 sequence (Q92769 whole entry): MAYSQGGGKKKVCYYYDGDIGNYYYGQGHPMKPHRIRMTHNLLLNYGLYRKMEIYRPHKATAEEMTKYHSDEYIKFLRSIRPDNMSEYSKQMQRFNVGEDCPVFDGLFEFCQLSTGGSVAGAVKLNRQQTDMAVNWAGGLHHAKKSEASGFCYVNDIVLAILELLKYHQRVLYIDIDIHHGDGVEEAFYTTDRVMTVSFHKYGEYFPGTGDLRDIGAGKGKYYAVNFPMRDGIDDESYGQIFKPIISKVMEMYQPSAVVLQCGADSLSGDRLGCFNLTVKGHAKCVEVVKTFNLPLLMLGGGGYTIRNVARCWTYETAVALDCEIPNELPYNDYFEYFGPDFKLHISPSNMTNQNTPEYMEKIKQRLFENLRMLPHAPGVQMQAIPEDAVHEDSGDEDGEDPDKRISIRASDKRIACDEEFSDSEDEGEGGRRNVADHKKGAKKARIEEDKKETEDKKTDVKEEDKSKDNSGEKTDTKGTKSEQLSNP
Protocol: as §1, §2

## CCCC[C@H]1NC(=O)[C@H](Cc2ccccc2)NC(=O)[C@H](CCCCCS)NC(=O)[C@@H](CO)NC(=O)[C@H](CC(=O)O)NC(=O)[C@@H](CO)NC(=O)[C@@H](C)NC(=O)[C@H](CCCCN)NC1=O [des4.3.1.1, SHA-Phe-dNle-Lys-dAla-dSer-Asp-dSer] (HELM PEPTIDE1{D.[dS].[O=C([C@H](CCCCCS)N[*:1])[*:2]].F.[CCCC[C@@H](N[*:1])C(=O)[*:2]].K.[dA].[dS]}$PEPTIDE1,PEPTIDE1,1:R1-8:R2$$$V2.0)
HDAC6
  6-Selectivity: fold potency for HDAC6 over HDAC2: 31.25 fold
HDAC6; Conc. 1.00E-05 M, t1
  HDAC6 activity raw data (signal): 121881
HDAC6; Conc. 1.00E-05 M, t2
  HDAC6 activity raw data (signal): 130414
HDAC6; Conc. 1.11E-06 M, t1
  HDAC6 activity raw data (signal): 580651
HDAC6; Conc. 1.11E-06 M, t2
  HDAC6 activity raw data (signal): 615445
HDAC6; Conc. 1.23E-07 M, t1
  HDAC6 activity raw data (signal): 1294999
HDAC6; Conc. 1.23E-07 M, t2
  HDAC6 activity raw data (signal): 1440536
HDAC6; Conc. 1.37E-08 M, t1
  HDAC6 activity raw data (signal): 1520011
HDAC6; Conc. 1.37E-08 M, t2
  HDAC6 activity raw data (signal): 1756812
HDAC6; Conc. 1.52E-09 M, t1
  HDAC6 activity raw data (signal): 1628369
HDAC6; Conc. 1.52E-09 M, t2
  HDAC6 activity raw data (signal): 1677368
HDAC6; Conc. 3.33E-06 M, t1
  HDAC6 activity raw data (signal): 268413
HDAC6; Conc. 3.33E-06 M, t2
  HDAC6 activity raw data (signal): 332099
HDAC6; Conc. 3.70E-07 M, t1
  HDAC6 activity raw data (signal): 971918
HDAC6; Conc. 3.70E-07 M, t2
  HDAC6 activity raw data (signal): 981413
HDAC6; Conc. 4.12E-08 M, t1
  HDAC6 activity raw data (signal): 1459081
HDAC6; Conc. 4.12E-08 M, t2
  HDAC6 activity raw data (signal): 1648611
HDAC6; Conc. 4.57E-09 M, t1
  HDAC6 activity raw data (signal): 1570327
HDAC6; Conc. 4.57E-09 M, t2
  HDAC6 activity raw data (signal): 1728944
HDAC6; Conc. 5.08E-10 M, t1
  HDAC6 activity raw data (signal): 1620579
HDAC6; Conc. 5.08E-10 M, t2
  HDAC6 activity raw data (signal): 1733616
HDAC2; Conc. 1.00E-05 M, t1
  HDAC2 activity raw data (signal): 1283086
HDAC2; Conc. 1.00E-05 M, t2
  HDAC2 activity raw data (signal): 1486401
HDAC2; Conc. 1.11E-06 M, t1
  HDAC2 activity raw data (signal): 1660902
HDAC2; Conc. 1.11E-06 M, t2
  HDAC2 activity raw data (signal): 1799195
HDAC2; Conc. 1.23E-07 M, t1
  HDAC2 activity raw data (signal): 1764651
HDAC2; Conc. 1.23E-07 M, t2
  HDAC2 activity raw data (signal): 1879798
HDAC2; Conc. 1.37E-08 M, t1
  HDAC2 activity raw data (signal): 1818162
HDAC2; Conc. 1.37E-08 M, t2
  HDAC2 activity raw data (signal): 1980324
HDAC2; Conc. 1.52E-09 M, t1
  HDAC2 activity raw data (signal): 1787655
HDAC2; Conc. 1.52E-09 M, t2
  HDAC2 activity raw data (signal): 1860263
HDAC2; Conc. 3.33E-06 M, t1
  HDAC2 activity raw data (signal): 1631295
HDAC2; Conc. 3.33E-06 M, t2
  HDAC2 activity raw data (signal): 1725891
HDAC2; Conc. 3.70E-07 M, t1
  HDAC2 activity raw data (signal): 1679365
HDAC2; Conc. 3.70E-07 M, t2
  HDAC2 activity raw data (signal): 1920676
HDAC2; Conc. 4.12E-08 M, t1
  HDAC2 activity raw data (signal): 1853084
HDAC2; Conc. 4.12E-08 M, t2
  HDAC2 activity raw data (signal): 2007168
HDAC2; Conc. 4.57E-09 M, t1
  HDAC2 activity raw data (signal): 1817065
HDAC2; Conc. 4.57E-09 M, t2
  HDAC2 activity raw data (signal): 1855125
HDAC2; Conc. 5.08E-10 M, t1
  HDAC2 activity raw data (signal): 1872757
HDAC2; Conc. 5.08E-10 M, t2
  HDAC2 activity raw data (signal): 1875796
